Read-outs that look alike come from different tables or passages of the source.
Test: Pharmacokinetics of acetate of Compound 22 in SD rats with single and repeated administration
Format: in vivo
Settings: Sprague-Dawley, rat, plasma; for half-life: read-out: T1/2 (converted); for Tmax: read-out: Tmax (median); for AUC(0-t): read-out: AUC0-t; for Cmax: read-out: Cmax
Description: The formulation for Group 5 was prepared before administration on Day 1, and then, divided into daily doses and stored at 5±3° C. After taking out the formulations on the day of administration, the formulations should be let stand at room temperature for at least 30 minutes before administration.
After blood collection, the blood collection tube containing the anticoagulant was turned upside down several times to mix well, and placed on wet ice before centrifugation. Within 60 minutes after blood collection, the samples were centrifuged at 2000 g for 10 minutes at 2-8° C. to separate red blood cells, thereby obtaining plasma samples. The plasma samples were transferred to cryovials and stored at −75±15° C. until analysis.
Blood samples were collected from SD rats at room temperature before administration and within 24 hours after administration. All collected samples were placed on wet ice before centrifugation and stored at −75±15° C. until analysis.
The mass spectrometer was Applied Biosystems/AB Sciex Triple Quad 4500.
Pharmacokinetic data was calculated using the linear logarithmic trapezoidal method, with a weight of 1/(Y*Y). Samples with the sample concentration below the lower limit of quantification were excluded from the calculation of pharmacokinetic parameters. […] The mean time to peak (Tmax) was represented as a median.

[1] = both sexes, po, 63 mg/kg, Group 5 PO 63 mg/kg repeated, Day 1, Overall
[2] = both sexes, po, 63 mg/kg, Group 5 PO 63 mg/kg repeated, Day 7, Overall
[3] = both sexes, po, 189 mg/kg, Group 4 PO 189 mg/kg single, Overall
[4] = female, iv, 2 mg/kg, Group 1 IV 2.0 mg/kg single, Female
[5] = female, po, 21 mg/kg, Group 2 PO 21 mg/kg single, Female
[6] = female, po, 63 mg/kg, Group 3 PO 63 mg/kg single, Female
[7] = female, po, 63 mg/kg, Group 5 PO 63 mg/kg repeated, Day 1, Female
[8] = female, po, 63 mg/kg, Group 5 PO 63 mg/kg repeated, Day 7, Female
[9] = female, po, 189 mg/kg, Group 4 PO 189 mg/kg single, Female
[10] = male, iv, 2 mg/kg, Group 1 IV 2.0 mg/kg single, Male
[11] = male, po, 21 mg/kg, Group 2 PO 21 mg/kg single, Male
[12] = male, po, 63 mg/kg, Group 3 PO 63 mg/kg single, Male
[13] = male, po, 63 mg/kg, Group 5 PO 63 mg/kg repeated, Day 1, Male
[14] = male, po, 63 mg/kg, Group 5 PO 63 mg/kg repeated, Day 7, Male
[15] = male, po, 189 mg/kg, Group 4 PO 189 mg/kg single, Male

In the case of CC(=O)O.Nc1nc(NCCc2ccc(NC3COC3)cc2)nc2nc(-c3ccco3)nn12 [Acetate of Compound 22, 2-(furan-2-yl)-N5-(4-(oxetane-3-ylamino)phenethyl)-[1,2,4]triazolo[1,5-a][1,3,5]triazine-5,7-diamine acetate], the half-life [1] is reported as 3.33 ± 1.68 h, the Tmax [1] is reported as 2 h and the AUC(0-t) [2] is reported as 127 ± 40.7 µg·h/mL. The Cmax [2] was 38300 ± 8840 ng/mL, the half-life [2] was 3.21 ± 0.615 h and the Tmax [2] was 1 h. For the same compound, the AUC(0-t) [3] was 241 ± 39.1 µg·h/mL, the Cmax [3] was 51800 ± 11800 ng/mL and the half-life [3] was 5.26 ± 3.05 h. The Tmax [3] was 2 h, the AUC(0-t) [4] was 5.85 ± 0.149 µg·h/mL and the half-life [4] was 4.7 ± 3.22 h. It also gave an AUC(0-t) [5] of 43.5 ± 4.15 µg·h/mL, a Cmax [5] of 20100 ± 3860 ng/mL and a half-life [5] of 3.73 ± 0.771 h. For the same compound, the Tmax [5] was 0.5 h, the AUC(0-t) [6] was 137 ± 40.4 µg·h/mL and the Cmax [6] was 30500 ± 9710 ng/mL. It also gave a half-life [6] of 2.91 ± 0.949 h, a Tmax [6] of 1 h and an AUC(0-t) [7] of 142 ± 23.1 µg·h/mL. For the same compound, the Cmax [7] was 37700 ± 2380 ng/mL, the half-life [7] was 2.4 ± 0.523 h and the Tmax [7] was 2 h. It also gave an AUC(0-t) [8] of 157 ± 36.9 µg·h/mL, a Cmax [8] of 45600 ± 1550 ng/mL and a half-life [8] of 2.73 ± 0.359 h. It also gave a Tmax [8] of 1 h, an AUC(0-t) [9] of 248 ± 55.6 µg·h/mL and a Cmax [9] of 59600 ± 12100 ng/mL. The half-life [9] was 7.63 h, the Tmax [9] was 1 h and the AUC(0-t) [10] was 4.87 ± 0.601 µg·h/mL. For the same compound, the half-life [10] was 1.43 h, the AUC(0-t) [11] was 42 ± 10.5 µg·h/mL and the Cmax [11] was 16600 ± 4100 ng/mL. For the same compound, the half-life [11] was 3.21 ± 0.304 h, the Tmax [11] was 0.5 h and the AUC(0-t) [12] was 87.3 ± 3.04 µg·h/mL. For the same compound, the Cmax [12] was 24200 ± 2340 ng/mL, the half-life [12] was 3.1 ± 0.251 h and the Tmax [12] was 1 h. For the same compound, the AUC(0-t) [13] was 79.7 ± 31.5 µg·h/mL, the Cmax [13] was 19900 ± 9080 ng/mL and the half-life [13] was 4.26 ± 2.04 h. The Tmax [13] was 1 h, the AUC(0-t) [14] was 98.1 ± 14.7 µg·h/mL and the Cmax [14] was 31000 ± 5750 ng/mL. The half-life [14] was 3.69 ± 0.342 h, the Tmax [14] was 1 h and the AUC(0-t) [15] was 235 ± 24.3 µg·h/mL. The Cmax [15] was 44100 ± 4710 ng/mL, the half-life [15] was 3.68 ± 1.22 h and the Tmax [15] was 4 h.
